Like-named read-outs stand apart in the source and are kept apart here.
Key:
DCN1 protein = DCN1 protein (Homo sapiens (Human), UniProt Q96GG9); test: Intact Protein MS Analysis with the RapidFire-TOF System (covalent adduct formation); format: binding; settings: MS Emax; 400 nM DCN1, 3 hours at room temperature
Procedure: An MS assay was performed to evaluate the ability of the compounds to covalently modify DCN-1.
DCN1 protein, His-TEV-DCN1, were expressed in E. Coli. The His-tagged protein was first purified with an Ni-NTA column. The His-tag was cleaved using His-tag TEV protease and the His-tags were removed using a second Ni-NTA column. Protein purity was verified with SDS-PAGE and intact MS. DCN1 was dissolved in a buffer containing 25 mM Tris-HCl, 200 mM NaCl, and 1 mM DTT at 400 nM. 11 concentrations of compounds were added to the DCN1 solution and incubated at room temperature for 3 hours, unless otherwise specified. The reaction plates were quenched by adding 0.2% formic acid. […] The cartridge was re-equilibrated with loading buffer for 1 second before collection of the next sample. The Q-TOF was operated in TOF-only positive ionization mode set to the following parameters: Gas Temp=350 C, Drying Gas=7 l/min, Nebulizer=50 psi, Sheath Gas Temp=400 C, Sheath Gas Flow=12 l/min, Vcap=4000 V, Nozzle Voltage=1000 V, Fragmentor=125 V, Skimmer=65 V and Oct 1 RF Vpp=750V. Raw MS data files were deconvoluted and analyzed using the Agilent MassHunter Bioconfirm software package to identify both parent protein and expected compound adduct mass signatures.

[1] = system: Cullin-3 (CUL3) neddylation; test: AlphaLISA assay for Cullin-3 (CUL3) neddylation in TF 1 cells; format: cell-based; settings: Homo sapiens, 3 hours treatment
How it was run: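 TF 1 cells in unsupplemented IMDM treated with compound concentrations for 3 h, then lysed. CUL3 neddylation detected by AlphaLISA (biotinylated anti-NEDD8, anti-CUL3 acceptor beads overnight, streptavidin donor beads 1 h); normalized to vehicle (0%) and 1 μM DI-1548 (100%), IC50 from Hill fits.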

[2] = biological target: DCN1 (DCUND1) protein PONY domain (Homo sapiens (Human), UniProt Q96GG9); test: TR-FRET assay, DCN1 binding with FAM-labeled probe
Chain of DCN1 (DCUND1) protein PONY domain (Q96GG9 60-248): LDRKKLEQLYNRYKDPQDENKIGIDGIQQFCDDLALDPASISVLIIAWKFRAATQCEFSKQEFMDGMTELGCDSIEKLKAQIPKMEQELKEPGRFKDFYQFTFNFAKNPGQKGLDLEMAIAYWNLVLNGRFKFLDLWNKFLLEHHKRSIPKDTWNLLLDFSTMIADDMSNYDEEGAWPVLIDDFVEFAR
How it was run: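 Tb-DCN1 PONY domain (E. coli, biotin/streptavidin-Tb); FAM-labelled non-covalent inhibitor probe; TritonX buffer, 200 mM NaCl; 5 nM DCN1 + 20 nM probe or 0.31 nM DCN1 + 900 nM total probe; 0.1% DMSO; TR-FRET read 1, 5, 24 hrs.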

[3] = 24 hr after treatment with compound, read-out: TR FRET IC50 24 hr
[4] = read-out: TR FRET IC50 1 hr, 1 hr after treatment with compound
[5] = TR FRET IC50 1 hr (nM), 1 hr after treatment with compound

Chain of DCN1 protein (Q96GG9 whole entry): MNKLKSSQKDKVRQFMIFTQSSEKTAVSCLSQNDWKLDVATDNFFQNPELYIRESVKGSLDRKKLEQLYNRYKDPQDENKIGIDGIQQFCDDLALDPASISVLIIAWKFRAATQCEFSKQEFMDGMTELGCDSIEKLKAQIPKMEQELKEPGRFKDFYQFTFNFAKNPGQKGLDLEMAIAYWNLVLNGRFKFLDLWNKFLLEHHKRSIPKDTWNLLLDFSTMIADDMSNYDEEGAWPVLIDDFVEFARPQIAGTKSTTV

Row | SMILES | % Adduct Formation (DCN1 protein) | IC50 ([1]; TF-1, 3 h) [nM] | IC50 [2, 3] [nM] | IC50 [2, 5] [nM] | other results
1 | CCN1C(=O)[C@@H](NC(=O)c2cccc(C(F)(F)F)c2)[C@@H](c2ccc(F)cc2)c2c(NC(=O)C(F)Cl)nn(-c3ccccc3)c21 (mixture of isomers) [Compound I-120] | + (MS Emax % adduct formation greater than or equal to 0.0 and less than or equal to 30.0) |  |  |  | 
2 | CCN1C(=O)[C@@H](NC(=O)c2cccc(C(F)(F)F)c2)[C@@H](c2ccc(F)cc2)c2c([C@@H](C)NC(=O)/C=C/C(F)(F)F)nn(-c3ccccc3)c21 (mixture of isomers) [Compound I-164] | + (MS Emax % adduct formation greater than or equal to 0.0 and less than or equal to 30.0) |  |  |  | 
3 | CCN1C(=O)[C@@H](NC(=O)c2cccc(C(F)(F)F)c2)[C@@H](c2ccc(F)cc2)c2c([C@@H](C)NC(=O)/C=C/CN3CCOCC3)nn(-c3ccccc3)c21 (mixture of isomers) [Compound I-165] | + (MS Emax % adduct formation greater than or equal to 0.0 and less than or equal to 30.0) |  |  |  | 
4 | CCN1C(=O)[C@@H](NC(=O)c2cccc(C(F)(F)F)c2)[C@@H](c2ccc(F)cc2)c2c([C@@H](C)NC(=O)C3=CCCC3)nn(-c3ccccc3)c21 (mixture of isomers) [Compound I-166] | + (MS Emax % adduct formation greater than or equal to 0.0 and less than or equal to 30.0) |  |  |  | 
5 | CCN1C(=O)[C@@H](NC(=O)c2cccc(C(F)(F)F)c2)[C@@H](c2ccc(F)cc2)c2c([C@@H](C)NC(=O)COc3c(F)c(F)cc(F)c3F)nn(-c3ccccc3)c21 (mixture of isomers) [Compound I-168] | + (MS Emax % adduct formation greater than or equal to 0.0 and less than or equal to 30.0) |  |  |  | 
6 | C=CC(=O)N[C@H](C)c1nn(-c2ccccc2)c2c1[C@H](c1ccc(F)cc1)[C@H](NC(=O)c1cccc(C(F)(F)F)c1)C(=O)N2CC (mixture of isomers) [Compound I-174] | + (MS Emax % adduct formation greater than or equal to 0.0 and less than or equal to 30.0) |  |  |  | 
7 | CCN1C(=O)[C@@H](NC(=O)c2cccc(C(F)(F)F)c2)[C@@H](c2ccc(F)cc2)c2c([C@H](C)NC(=O)CCl)nn(-c3ccccc3)c21 (mixture of isomers) [Compound I-175] | + (MS Emax % adduct formation greater than or equal to 0.0 and less than or equal to 30.0) |  |  |  | 
8 | C=C(C)C(=O)N[C@H](C)c1nn(-c2ccccc2)c2c1[C@H](c1ccc(F)cc1)[C@H](NC(=O)c1cccc(C(F)(F)F)c1)C(=O)N2CC (mixture of isomers) [Compound I-191] | + (MS Emax % adduct formation greater than or equal to 0.0 and less than or equal to 30.0) |  |  |  | 
9 | CC#CC(=O)N[C@H](C)c1nn(-c2ccccc2)c2c1[C@H](c1ccc(F)cc1)[C@H](NC(=O)c1cccc(C(F)(F)F)c1)C(=O)N2CC (mixture of isomers) [Compound I-209] | + (MS Emax % adduct formation greater than or equal to 0.0 and less than or equal to 30.0) |  |  |  | 
10 | CCN1C(=O)[C@@H](NC(=O)c2cccc(C(F)(F)F)c2)[C@@H](c2ccc(F)cc2)c2c([C@@H](C)NC(=O)/C=C/CN(C)C)nn(-c3ccccc3)c21 (mixture of isomers) [Compound I-210] | + (MS Emax % adduct formation greater than or equal to 0.0 and less than or equal to 30.0) |  |  |  | 
11 | CCN1C(=O)[C@@H](NC(=O)c2cccc(C(F)(F)F)c2)[C@@H](c2ccc(F)cc2)c2c([C@H](C)NC(=O)C(C)Cl)nn(-c3ccccc3)c21 (mixture of isomers) [Compound I-211] | + (MS Emax % adduct formation greater than or equal to 0.0 and less than or equal to 30.0) |  |  |  | 
12 | C=C(CN(C)C)C(=O)N[C@H](C)c1nn(-c2ccccc2)c2c1[C@H](c1ccc(F)cc1)[C@H](NC(=O)c1cccc(C(F)(F)F)c1)C(=O)N2CC (mixture of isomers) [Compound I-213] | +++ (MS Emax % adduct formation greater than 80.0 and less than or equal to 100.0) |  |  |  | 
13 | CCN1C(=O)[C@@H](NC(=O)c2cccc(C(F)(F)F)c2)[C@@H](c2ccc(F)cc2)c2c([C@@H](C)NS(=O)(=O)CCl)nn(-c3ccccc3)c21 (mixture of isomers) [Compound I-215] | + (MS Emax % adduct formation greater than or equal to 0.0 and less than or equal to 30.0) |  |  |  | 
14 | CCN1C(=O)[C@@H](NC(=O)c2cccc(C(F)(F)F)c2)[C@@H](c2ccc(F)cc2)c2c([C@@H](C)NC(=O)C3=CCC3)nn(-c3ccccc3)c21 (mixture of isomers) [Compound I-237] | + (MS Emax % adduct formation greater than or equal to 0.0 and less than or equal to 30.0) |  |  |  | 
15 | CCN1C(=O)[C@@H](NC(=O)c2cccc(C(F)(F)F)c2)[C@@H](c2ccc(F)cc2)c2c(C(=O)N3CC[C@H](F)[C@H]3C#N)nn(C3CCOCC3)c21 [Compound I-694, N-((4S,5S)-3-((2R,3S)-2-cyano-3-fluoropyrrolidine-1-carbonyl)-7-ethyl-4-(4-fluorophenyl)-6-oxo-1-(tetrahydro-2H-pyran-4-yl)-4,5,6,7-tetrahydro-1H-pyrazolo[3,4-b]pyridin-5-yl)-3-(trifluoromethyl)benzamide] |  | ≤ 100 | ≤ 200 |  | IC50 [2, 4]: ≤ 200 nM
16 | CCN1C(=O)[C@@H](NC(=O)c2c(Cl)ccc(OC)c2F)[C@@H](C2CC2)c2c(C(=O)N3[C@H](C#N)C[C@H]4C[C@H]43)nn(C3CCOCC3)c21 [Compound I-697] |  | > 1000 | 1000 to 3000 | 1000 to 3000 | 
17 | CCN1C(=O)[C@@H](NC(=O)C(C2CC2)C2CC2)[C@@H](C2CC2)c2c(C(=O)N3[C@H](C#N)C[C@H]4C[C@H]43)nn(C3CCOCC3)c21 [Compound I-699] |  | > 1000 | 1000 to 3000 | 1000 to 3000 | 
18 | CCN1C(=O)[C@@H](NC(=O)c2cccc(C(F)(F)F)c2)[C@@H](C2CC2)c2c(C(=O)N3[C@H](C#N)CC[C@@H]3C)nn(C3CCOCC3)c21 [Compound I-700] |  | 100 to 1000 | 200 to 1000 | 1000 to 3000 | 
19 | CCN1C(=O)[C@@H](NC(=O)c2cccc(C(F)(F)F)c2)[C@@H](C2CC2)c2c(C(=O)N(CC#N)C3CC3)nn(C3CC3)c21 [Compound I-702] |  | 100 to 1000 | 200 to 1000 | 1000 to 3000 | 
20 | CCN1C(=O)[C@@H](NC(=O)c2cccc(C(F)(F)F)c2)[C@@H](C2CC2)c2c(C(=O)N3[C@@H](C#N)C[C@@H]4C[C@@H]43)nn(C3CCOCC3)c21 [Compound I-703, N-((4S,5S)-3-((1S,3R,5S)-3-cyano-2-azabicyclo[3.1.0]hexane-2-carbonyl)-4-cyclopropyl-7-ethyl-6-oxo-1-(tetrahydro-2H-pyran-4-yl)-4,5,6,7-tetrahydro-1H-pyrazolo[3,4-b]pyridin-5-yl)-3-(trifluoromethyl)benzamide] |  | > 1000 | 1000 to 3000 | 1000 to 3000 | 
21 | CCN1C(=O)[C@@H](NC(=O)c2ccc3nn[nH]c3c2)[C@@H](C2CC2)c2c(C(=O)N3[C@H](C#N)C[C@H]4C[C@H]43)nn(C3CCOCC3)c21 [Compound I-705] |  | > 1000 | 1000 to 3000 | 1000 to 3000 | 
22 | CCN1C(=O)[C@@H](NC(=O)c2ccc3snnc3c2)[C@@H](C2CC2)c2c(C(=O)N3[C@H](C#N)C[C@H]4C[C@H]43)nn(C3CCOCC3)c21 [Compound I-706] |  | ≤ 100 | 200 to 1000 | 1000 to 3000 | 
23 | CCN1C(=O)[C@@H](NC(=O)c2cccc3ccoc23)[C@@H](C2CC2)c2c(C(=O)N3[C@H](C#N)C[C@H]4C[C@H]43)nn(C3CCOCC3)c21 [Compound I-707] |  |  | ≤ 200 |  | IC50 [1]: ≤ 100 nM; IC50 [2, 4]: ≤ 200 nM
